“And” between values parts separate entries of the source, which are not always exact repeats. Equal values may be shown once.
What was measured:
[1] = system: mice, 25 minutes renal ischemia/reperfusion; test: Mouse renal ischemia reperfusion test (mortality, BUN/serum urea); format: in vivo; set-up: BUN, mean / Urea level: unit not given here; details: 5 mg/kg i.v.
Experimental: SEQ ID NO:2 was tested and compared with PBS (control) in a double blind animal study for the peptide's relative ability to aid recovery in a mouse renal ischemia reperfusion test. In this test, the mice were anesthetized, and one kidney from each mouse was removed. The other kidney was tied off for 25 minutes, and the serum urea levels were allowed to increase. Both before and after tying off, the peptide was administered to thirty (30) different mice (5 mg oligopeptide/kg body mass intravenously), after which, the mortality of the mice was determined for each oligopeptide as well as was the BUN concentration at two hours, 24 hours and 72 hours.
Under inhalation anesthesia, the left kidney with its artery and vein was isolated and occluded for 25 minutes using a microvascular clamp. During surgery animals were placed on a heating path to maintain body temperature at 37° C. Five minutes before placing the clamp, and 5 minutes before releasing the clamp, 5 mg/kg of peptide, dissolved in 0.1 mL of sterile saline, was administered intravenously. After reperfusion of the left kidney the right kidney was removed. Kidney function was assessed by measuring blood urea nitrogen before clamping, and at 2, 24, and 72 hours after reperfusion.
To determine dose-response relationships SEQ ID NO:2, was tested in a dose-response manner in the mice test as described above. Peptides were tested at 0.3, 1, 3, 10 and 30 mg/kg dosages given as described in Example I. Serum urea levels are presented in Table 3.

[2] = system: RAW 264.7 murine macrophage cell line; test: Nitrite (NO) production in LPS-stimulated RAW 264.7 macrophages; format: cell-based; details: co-stimulated with LPS 10 microg/ml, peptide even at 1 pg/ml, 24 hours
Experimental: Cell culture. The RAW 264.7 murine macrophage cell line, obtained from American Type Culture Collection (Manassas, Va., USA), were cultured at 37° C. in 5% CO2 using DMEM containing 10% fetal calf serum (FCS), 50 U/ml penicillin, 50 μg/ml streptomycin, […] Na-pyruvate, 2 mM glutamine and 50 μM 2-mercaptoethanol (Bio Whittaker, Europe). The medium was changed every 2 days.
Nitrite measurements. Nitrite production was measured in the RAW 264.7 macrophage supernatants. The cells (7.5×10^5/ml) were cultured in 48-well plates in […] of culture medium. The cells were stimulated with LPS (10 microg/ml) and/or peptide (1 pg/ml, 1 ng/ml, 1 μg/ml) for 24 hours, then the culture media were collected. Nitrite was measured by adding 100 microl of Griess reagent (Sigma) to 100 microl samples of culture medium. The OD540 was measured using a microplate reader, and the nitrite concentration was calculated by comparison with the OD540 produced using standard solutions of sodium nitrite in the culture medium.

[3] = system: BALB/c mice injected i.p. with LPS (E. coli 026:B6); test: LPS-induced septic shock (endotoxin model) in BALB/c mice; format: in vivo, mouse
Experimental: Mice used in sepsis or septic shock experiments: Female BALB/c mice of 8-12 weeks of age were used for all experiments. The animals were bred in our facility under specific pathogen-free conditions according to the protocols described in the Report of European Laboratory Animal Science Associations (FELASA) Working group on Animal Health (Laboratory Animals 28: 1-24, 1994).
Injection protocols: For the endotoxin model, BALB/c mice were injected i.p. with 150-300 μg LPS (E. coli 026:B6; Difco Lab., Detroit, Mich., USA). Control groups were treated with PBS i.p. only. To test the effect of peptides, they were dissolved in PBS and injected i.p. at predetermined points in time after LPS treatment.
Mice were scored for sickness severity using the following measurement scheme: • 0 No abnormalities. • 1 Percolated fur, but no detectable behavior differences compared to normal mice. • 2 Percolated fur, huddle reflex, responds to stimuli (such as tap on cage), just as active during handling as healthy mouse. • 3 Slower response to tap on cage, passive or docile when handled, but still curious when alone in a new setting. • 4 Lack of curiosity, little or no response to stimuli, quite immobile. • 5 Labored breathing, inability or slow to self-right after being rolled onto back (moribund, sacrificed). • D Dead […]
A comparative trial was set up to compare peptide MTR and SEQ ID NO:2. The comparative trial comprised 6 groups of 6 animals; two groups (1A and 1B) receiving placebo (PBS), one group (2) peptide MTR (source Pepscan, Lelystad, NL), one group (3) receiving peptide MTR (source Ansynth), one group (4) receiving peptide SEQ ID NO:2 (source Pepscan) and one group peptide SEQ ID NO:2 (source Ansynth). Peptide/placebo in these groups was administered 2 hours after LPS. LPS (source) was used at 10-11 mg/kg. Sickness scores were done at 0, 2, 22 26 42 and 48 hours after LPS injection.

[4] = system: mice, high dose LPS septic shock; details: single treatment after high dose LPS injection; cited from earlier work
[5] = peptide twice (t = 2 hr and 24 hr) 5 mg/kg, LPS dose 11, t = 24 hr
[6] = peptide twice (t = 2 hr and 24 hr) 5 mg/kg, LPS dose 11, t = 48 hr
[7] = single dose 5 mg/kg, LPS dose 7*, t = 24 hr
[8] = single dose 5 mg/kg, LPS dose 8, t = 24 hr
[9] = single dose 5 mg/kg, LPS dose 8, t = 48 hr
[10] = single dose 5 mg/kg, LPS dose 10, t = 24 hr
[11] = single dose 5 mg/kg, LPS dose 10, t = 48 hr

## LQGV [tetrapeptide from loop 2 of the beta-subunit of hCG]
[1]; 2 hr after reperfusion
  BUN, mean: 17.53
[1]; 24 hr after reperfusion
  BUN, mean: 56.08
[1]; 72 hr after reperfusion
  BUN, mean: 73.18
[1]; t = 0 hr (before clamping)
  BUN, mean: 7.518
[2]
  NO production: inhibited the production of NO
[3]; 5 mg/kg i.p. after varying doses of LPS (Table 6)
  effect against LPS-induced sepsis: marked protective effect
[3]; peptide twice (t = 2 hr and 24 hr) 5 mg/kg, LPS dose 10.5, t = 24 hr
  number of mice with sickness score 5: 5
[3]; peptide twice (t = 2 hr and 24 hr) 5 mg/kg, LPS dose 10.5, t = 48 hr
  number of mice with score D (dead): 5
[3]; [5]
  number of mice with sickness score 4: 2
  number of mice with sickness score 5: 4
[3]; [6]
  number of mice with score D (dead): 4
  number of mice with sickness score 4: 2
[3]; single dose 5 mg/kg, LPS dose 7**, t = 24 hr
  number of mice with sickness score 1: 6
[3]; single dose 5 mg/kg, LPS dose 7**, t = 48 hr
  number of mice with sickness score 1: 6
[3]; [7]
  number of mice with sickness score 1: 2
  number of mice with sickness score 2: 4
[3]; single dose 5 mg/kg, LPS dose 7*, t = 48 hr
  number of mice with sickness score 1: 6
[3]; [8]
  number of mice with sickness score 1: 3
  number of mice with sickness score 3: 1
[3]; single dose 5 mg/kg, LPS dose 8, t = 24 hr, 5 mg/kg
  number of mice with sickness score 2: 5 and 3
[3]; [9]
  number of mice with sickness score 0: 4
  number of mice with sickness score 2: 1
[3]; [10]
  number of mice with sickness score 1: 2
  number of mice with sickness score 3: 1
  number of mice with sickness score 4: 1
[3]; [11]
  number of mice with score D (dead): 1
  number of mice with sickness score 2: 1
[3]; single dose 5 mg/kg, LPS dose 10, t = 48 hr, 5 mg/kg
  number of mice with sickness score 1: 6 and 4
[3]; single injection 5 mg/kg 2 hours after LPS (300 μg), time 0 hours
  % survival: 100%
[3]; single injection 5 mg/kg 2 hours after LPS, time 14 hours
  % survival: 100%
[3]; single injection 5 mg/kg 2 hours after LPS, time 24 hours
  % survival: 100%
[3]; single injection 5 mg/kg 2 hours after LPS, time 48 hours
  % survival: 100%
[3]; single injection 5 mg/kg 2 hours after LPS, time 84 hours
  % survival: 100%
[3]; single injection 5 mg/kg 24 hours after LPS (300 μg), time 0 hours
  % survival: 100%
[3]; single injection 5 mg/kg 24 hours after LPS, time 14 hours
  % survival: 100%
[3]; single injection 5 mg/kg 24 hours after LPS, time 24 hours
  % survival: 100%
[3]; single injection 5 mg/kg 24 hours after LPS, time 48 hours
  % survival: 0%
[3]; single injection 5 mg/kg 24 hours after LPS, time 84 hours
  % survival: 0%

## VLPALP [6-mer oligopeptide derived from the beta-chain of human chorionic gonadotropin hormone (Khan et al. 2002)]
[4]
  septic shock in mice: inhibited septic shock in mice

Source: patent publication US8680059B2, “Oligopeptide acetate and formulations thereof” (Biotempt B.V., priority 1998, dated 2014)
